The results in this text go back to patent US9051350B2, “Macrocyclic antiproliferation agents and methods of treatment” (University of Florida Research Foundation, Inc., priority 2008, dated 2015).

*1 amine or outer side, *2 acyl side, *3 side chain or, on linkers, in order; H or OH if unused. Where a SMILES comes first, the peptide text is derived from it. [ ]: non-standard residue; d: D form. ξ: configuration not given here. dβ3hAla(2R-Me) = C[C@@H](N[*:1])[C@@H](C)C(=O)[*:2]; X1 = CN(C(Cc1ccccc1)C1=N[C@H](C(=O)[*:2])CS1)[*:1]; X2 = CC[C@@H](N[*:1])C1=NC(C(=O)[*:2])CS1; d(aThr) = C[C@@H](O)[C@@H](N)C(=O)O; dNMeL = CN[C@H](CC(C)C)C(=O)O; ξPhLac = O=C(O)C(O)Cc1ccccc1; NMeV = CN[C@H](C(=O)O)C(C)C

Test in all cases: Cell viability assay (MTT), antiproliferative activity
Holding throughout (format): cell-based

In one assay the test system is neuroblastoma (IMR-32). The note with it: Homo sapiens, IMR-32 cells, 48 hours of incubation. Here is the method:
(§1) Cell culture medium was purchased from Invitrogen and fetal bovine serum (FBS) from Hyclone. Cells were propagated and maintained in DMEM medium (high glucose) supplemented with 10% FBS at 37° C. humidified air and 5% CO2.
(§2) HT29 colon adenocarcinoma cells were used for the bioassay-guided fractionation. To determine cell type selectivity, cells from four cancer cell lines (U2OS, HeLa, HT29 and IMR-32) were plated in 96-well format and incubated at 37° C. (5% CO2) for 24 hours. A dilution series of 1 in DMSO (1 μL) was then added, and after further 48 hours of incubation the cell viability was quantified using a standard assay kit based on MTT dye according to the manufacturer's instructions (Promega).

The subject of assay [1] is colorectal adenocarcinoma (HT29). To be noted: Homo sapiens, HT-29, HT29 cells, 48 hours of incubation. The procedure: as §1, §2
Assay [2] concerns human osteosarcoma (U2OS). To be noted: U2OS cells, 48 hours of incubation. Here is the method: as §1, §2
The test system of assay [3] is cervical carcinoma (HeLa). The note with it: Homo sapiens, HeLa cells, 48 hours of incubation. The procedure: as §1, §2

For `CC[C@H]1NC(=O)[C@@H]2CSC(=N2)C(Cc2ccccc2)N(C)C(=O)[C@@H]2CCCN2C(=O)[C@H](C(C)C)N(C)C(=O)C(Cc2ccccc2)OC(=O)[C@H](C)[C@@H](C)NC(=O)[C@@H]([C@@H](C)O)NC(=O)[C@@H](CC(C)C)N(C)C(=O)C2CSC1=N2` (stereo partly drawn) [Compound 1, grassypeptolide] (cyclo([NMeV]P[X1][X2][dNMeL][d(aThr)][dβ3hAla(2R-Me)][ξPhLac])), the IC50 came out at 4200 nM with neuroblastoma (IMR-32), 1500 nM in assay [1], 2200 nM in assay [2] and 1000 nM in assay [3].

For orientation: IC50 means the concentration at which inhibition is half-maximal. A low value points to inhibition by little substance.
